The values that follow come from patent US9409895B2, “Autotaxin inhibitors” (Novartis AG, priority 2012, dated 2016).

The IC50 is the concentration that inhibits the measured activity by half.

The test concerns the target Recombinant human ATX (Homo sapiens (Human), UniProt Q13822). Kind of test: ATX inhibition assay (released choline, choline oxidase/HRP/Amplex Red fluorescence). It is filed as biochemical. The protocol: LPC (oleoyl (18:1)) was purchased from Avant: Polar Lipids (Alabaster, Ala.) and solubilized in methanol to 20 mM. Amplex Red was obtained from Invitrogen Life Technologies (Paisley, UK) and dissolved in DMSO to 10 mM. Choline oxidase and horseradish peroxidase (HRP) were obtained from Sigma Aldrich (Dorset, UK) and dissolved in HBSS to 20 U/ml and 200 U/ml respectively. AH reagents were stored at −20° C. in single use aliquots. All experimental measurements were performed in assay buffer made up immediately prior to use (HBSS, 0.01% BSA essentially fatty acid free).
Recombinant human ATX was prepared at Novartis (Basel, CH) in a human embryonic kidney (HEK) cell preparation, and stored in single use aliquots of […] (26 μM) stocks stored at −80° C.
All experimental measurements were performed in black 384 well polystyrene (low volume, round bottom, Corning (3676)) plates. PerkinElmer EnVision (Fluorescence Intensity/Absorbance Monochromator) or Tecan Infinite 200 PRO series plate reader was used to detect change in fluorescent intensity.
ATX activity was determined by measurement of released choline in reactions containing ATX (10 nM), choline oxidase (0.1 U/ml), HRP (100 U/ml), amplex red (50 μM) and LPC 18:1 (10 μM). Compounds of the invention were prepared as 10 point serial dilutions from 1 μM in duplicate and pre-incubated with ATX at 37° C. for 20 minutes prior to the addition of remaining reagents. The liberated choline was measured from changes in fluorescence intensity (λex 530 nm, λem 590 nm) of the product resurofin at 37° C. every 2 minutes over a 40-minute period. ATX activity was measured as a slope of the linear portion of the progress curve, typically between 14 to 24 minutes.
Slope data was exported to Graphpad prism (Graphpad software, San Diego, Calif.) where data was fitted to equation 1. Y=Bottom+(Top−Bottom)/(1+10^((Log IC50−X)*HillSlope)) Equation 1: […]

Read-outs that look alike come from different tables or passages of the source. Bounds are passed on as bounds.

“(S)-3,5-Dichlorobenzyl 3-(4-(1H-1,2,3-triazol-4-yl)butanamido)pyrrolidine-1-carboxylate or (R)-3,5-Dichlorobenzyl 3-(4-(1H-1,2,3-triazol-4-yl)butanamido)pyrrolidine-1-carboxylate [Example 49b]”: the IC50 was 0.263 µM.

“(S)-3,5-Dichlorobenzyl 3-(4-(1H-1,2,3-triazol-4-yl)butanamido)pyrrolidine-1-carboxylate or (R)-3,5-Dichlorobenzyl 3-(4-(1H-1,2,3-triazol-4-yl)butanamido)pyrrolidine-1-carboxylate [Example 49a]”: the IC50 was above 1 µM.

In the case of `CN(CCC1CCN(C(=O)OCc2cc(Cl)cc(C#N)c2)CC1)C(=O)c1c[nH]nn1` [Example 36, 3-Chloro-5-cyanobenzyl 4-(2-(N-methyl-1H-1,2,3-triazole-4-carboxamido)ethyl)piperidine-1-carboxylate], the concentration for half-maximal inhibition (IC50) (ATX 10 nM, LPC 18:1 10 μM, 37° C., 20 min pre-incubation, mean of n 2) stood at 1 µM.
